# Assay results from patent US4464371A, “Five-membered heterocyclic compounds” (Santen Pharmaceutical Co., Ltd., priority 1980, dated 1984).
# Experiments:
# [1] = system: blood pressure of spontaneously hypertensive rats; assay: Hypotensive effect in spontaneously hypertensive rats (oral, indirect tail-cuff method); format: in vivo, Male spontaneously hypertensive rats (Charles River); conditions: 10 mg/Kg and 30 mg/Kg, suspended in 0.5% tragacanth, male spontaneously hypertensive rats
# Protocol: Male spontaneously hypertensive rats (Charles River) weighing 370-430 g (37-43 weeks of age) were used.
# The subject compound, suspended in 0.5% tragacanth, was given orally to the animals. Their blood pressure was measured by indirect tail-cuff method using a programmed electrosphygmomanometer.
# In the figure, line 1 and line 2 represent the hypotensive effect by the compound of this invention at doses of 30 mg/Kg and 10 mg/Kg, respectively, line 3 that by the reference compound at a dose of 30 mg/Kg, and line 4 control (no drugs).
# Acute toxicity test = format: in vivo, male mice; conditions: mouse, in vivo; intravenous, administered as aqueous sodium hydroxide solution, male mice
# Source text: (§1) Acute toxicity of (2R,4R)--3--[S--[4--(dipropylsulfamoyl)--benzoyl]--3--mercaptopropionyl]-- 2--(2--hydroxyphenyl)--4--thiazolidinecarboxylic acid is shown in the table.
# (§2) *^1 administered as tragacanth
# (§3) *^2 administered as aqueous sodium hydroxide solution
# (§4) Animals used in this test were ten male mice in each route.
# mice = assay: Acute toxicity test; format: in vivo, male mice
# Source text: as §1, §2, §3, §4
compound,measurement,setting,value
"CCCN(CCC)S(=O)(=O)c1ccc(C(=O)SCCC(=O)N2[C@@H](c3ccccc3O)SC[C@H]2C(=O)O)cc1 [Example 1, (2R,4R)--3--[S--[4--(Dipropylsulfamoyl)benzoyl]--3--mercaptopropionyl]--2-- (2--hydroxyphenyl)--4--thiazolidinecarboxilic acid]",decrease of blood pressure (hypotensive effect),[1],clearly decreased the blood pressure
same,LD50,Acute toxicity test,> 500 mg/kg
same,LD50 (deaths observed),"mice; mouse, in vivo, po, 1000 mg/kg",No death was observed
same,acute toxicity (overall),"mice; oral and intravenous, male mice",low toxicity
